Assay results from patent publication US20220370416A1, “COMPOUNDS AND METHODS FOR TARGETED DEGRADATION OF KRAS” (Arvinas Operations, Inc., priority 2020, published 2022).

How the values were obtained:
HiBit-KRAS^G12C [1] = target: T1, HiBit-KRAS^G12C (Homo sapiens, UniProt P01116, G12C); test: HiBit degradation assay in SW1573 HiBit-KRas^G12C cells; type: cell-based; design: expressed in transfected cells; host or cells: SW1573 (clone E6), modified pcDNA3.1 vector, TK promoter; conditions: 0.1% DMSO, 24 hours; for DC50: read-out: KRas^G12C-HIBit (SW1573; 0.1% DMSO) DC50*
T1 sequence (P01116 1-186 isoform P01116-2 G12C limits assumed): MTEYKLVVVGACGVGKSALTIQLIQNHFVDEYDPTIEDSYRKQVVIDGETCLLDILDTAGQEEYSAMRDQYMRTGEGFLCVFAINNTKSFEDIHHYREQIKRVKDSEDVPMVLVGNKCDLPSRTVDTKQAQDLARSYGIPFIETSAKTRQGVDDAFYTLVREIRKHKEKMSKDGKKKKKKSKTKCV
Procedure, shortened: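 HiBit-KRAS G12C degradation was measured after a 24 h compound exposure (titrated 10 μM–20 nM) in engineered SW1573 cells. Lytic HiBit luminescence, expressed relative to DMSO controls, yielded DC50 and Dmax from 4-parameter fits. Concentrations causing ≥50% loss in alamar blue viability were omitted as cytotoxic.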

HiBit-KRAS^G12C [2] = target: T1, HiBit-KRAS^G12C; test: HiBit degradation assay in MiaPaCa-2 HiBit-KRas^G12C cells; type: cell-based; conditions: MIA PaCa-2, read-out: KRas^G12C-HiBiT (MiaPaCa; 0.1% DMSO) DMax, MiaPaCa-2 HiBit-KRas^G12C cells; 0.1% DMSO; 24 hours; maximum degradation
Experimental: Reagents. SW1573 (CRL-2170) and MiaPaCa-2 (CRL-1420) cells were purchased from ATCC. Both cell lines are […] for the G12C mutation in KRAS. SW1573 cells were cultured in DMEM+F12+Glutamax (+Sodium Bicarbonate, +sodium pyruvate, Thermofisher scientific, #10565) supplemented with 10% FBS (Thermofisher scientific, #2060357) and 1% Antibiotic-Antimycotic (Thermofisher scientific, #15240096). MiaPaCa-2 cells were cultured in DMEM+Glutamax media (Thermofisher scientific, #10566) supplemented with 10% FBS (Thermofisher scientific, #2060357) and 1% Antibiotic-Antimycotic (Thermofisher scientific, #15240096). For degradation assays, 384 well plates were purchased from Corning (Corning® CellBIND® 384-well Flat Clear Bottom Black Polystyrene Microplates, Low Flange, #3770). Gambogic acid was purchased from Selleckchem (#S2448). Alamar blue was purchased from Thermofisher scientific (A50101) and used according to manufacturer instructions. The Nano-Glo® HiBit Lytic Detection System and Nano-Glo® HiBit Blotting System were purchased from Promega (#N3050 and #N2410) and used according to manufacturer instructions.
To create the MiaPaCa-2 HiBit-KRAS^G12C cell line, CRISPR-Cas9 was used to insert the HiBit tag onto the N-terminus of one or more of the four endogenous KRAS^G12C alleles. After knock-in of the tag, individual clones were isolated by single cell dilution and screened for HiBit insertion by PCR. Clones containing the HiBit tag were sequenced and one was identified that contained the desired HiBit-KRAS^G12C sequence at one allele while the remaining three KRAS^G12C alleles were unaffected. This line was used for all subsequent studies.
Either SW1573 HiBit-KRas^G12C or MiaPaCa-2 HiBit-KRas^G12C cells were plated at 9000 cells/well in a 384 well plate (Corning #3770). Exemplary heterobifunctional molecules and positive controls were diluted in the appropriate cell media and applied to the plated cells resulting in a final concentration titration of 10 μM to 20 nM in either 0.1% or 0.5% dimethyl sulfoxide (DMSO). Gambogic acid was used as a positive control for cytotoxicity and titrated from 10 μM to 78 nM. All assays were performed in triplicate. Cells were treated with compounds for 24 hours at 37° C. in an incubator containing 5% CO2. Following treatment, alamar blue was used to determine if any compounds led to a loss in cell viability after 24 hours. The 10× alamar blue reagent was added to a final concentration of 1× as recommended by the manufacturer and cells were returned to the incubator for 4 hours. Plates were then allowed to equilibrate to room temperature and fluorescence was measured using a Perkin-Elmer EnVision. After completion of the fluorescence read, the liquid from each well was removed and the cells were washed with PBS. The Nano-Glo® HiBiT detection reagent was prepared according to the manufacturer's instructions and added to each well after the PBS wash was removed. Following incubation at room temperature for 45 minutes, the luminescence was read using the ultra-sensitive luminescence aperture on the Envision instrument.
Fluorescence values from the alamar blue treatment were normalized to the DMSO only control for each compound titration. We hypothesized that compounds that led to a ≥50% loss in cell viability of the KRAS-independent SW1573 HiBit-KRas^G12C cells were likely generally cytotoxic and loss of HiBit-KRAS^G12C signal from these compounds may be due to lower cell number and not specific KRAS^G12C degradation. These points were therefore excluded from the data analysis for degradation. […]

[3] = SW1573, SW1573 HiBit-KRas^G12C, read-out: KRas^G12C-HiBit (SW1573; 0.1% DMSO) Dmax**

| DC50 (HiBit-KRAS^G12C [1]; SW1573 HiBit-KRas^G12C) [µM] | Dmax (HiBit-KRAS^G12C [1]; [3]) [%] | SMILES | Dmax (HiBit-KRAS^G12C [1]; SW1573, read-out: KRas^G12C-HiBit (SW1573; 0.1% DMSO) Dmax**, SW1573 HiBit-KRas^G12C) [%] | Dmax (HiBit-KRAS^G12C [2]) [%] |
| --- | --- | --- | --- | --- |
| > 1 |  | C=CC(=O)N1CCN(c2nc(O[C@H](C)CN3CCC(OCCOCCOCCOCCOc4cc(-c5scnc5C)ccc4CNC(=O)[C@@H]4C[C@@H](O)CN4C(=O)[C@@H](c4cc(C)no4)C(C)C)CC3)nc3c(F)c(-c4cc(O)cc5ccccc45)c(Cl)cc23)CC1 [Compound 76, (2S,4R)-N-({2-[2-(2-{2-[2-({1-[(2R)-2-{[6-chloro-8-fluoro-7-(3-hydroxynaphthalen-1-yl)-4-[4-(prop-2-enoyl)piperazin-1-yl]quinazolin-2-yl]oxy}propyl]piperidin-4-yl}oxy)ethoxy]ethoxy}ethoxy)ethoxy]-4-(4-methyl-1,3-thiazol-5-yl)phenyl}methyl)-4-hydroxy-1-[(2R)-3-methyl-2-(3-methyl-1,2-oxazol-5-yl)butanoyl]pyrrolidine-2-carboxamide] |  |  |
| > 1 |  | C=CC(=O)N1CCN(c2nc(O[C@H](C)CN3CCC(OCCOCCOCCOCCOCCOc4cc(-c5scnc5C)ccc4CNC(=O)[C@@H]4C[C@@H](O)CN4C(=O)[C@H](c4cc(C)no4)C(C)C)CC3)nc3c(F)c(-c4cc(O)cc5ccccc45)c(Cl)cc23)CC1 [Compound 79, (2S,4R)-N-[(2-{[14-({1-[(2R)-2-{[6-chloro-8-fluoro-7-(3-hydroxynaphthalen-1-yl)-4-[4-(prop-2-enoyl)piperazin-1-yl]quinazolin-2-yl]oxy}propyl]piperidin-4-yl}oxy)-3,6,9,12-tetraoxatetradecan-1-yl]oxy}-4-(4-methyl-1,3-thiazol-5-yl)phenyl)methyl]-4-hydroxy-1-[(2S)-3-methyl-2-(3-methyl-1,2-oxazol-5-yl)butanoyl]pyrrolidine-2-carboxamide] |  |  |
| > 1 |  | C=CC(=O)N1CCN(c2nc(O[C@H](C)CN3CCC(OCCOCCOc4cc(-c5scnc5C)ccc4CNC(=O)[C@@H]4C[C@@H](O)CN4C(=O)[C@@H](c4cc(C)no4)C(C)C)CC3)nc3c(F)c(-c4cc(O)cc5ccccc45)c(Cl)cc23)CC1 [Compound 72, (2S,4R)-N-[(2-{2-[2-({1-[(2R)-2-{[6-chloro-8-fluoro-7-(3-hydroxynaphthalen-1-yl)-4-[4-(prop-2-enoyl)piperazin-1-yl]quinazolin-2-yl]oxy}propyl]piperidin-4-yl}oxy)ethoxy]ethoxy}-4-(4-methyl-1,3-thiazol-5-yl)phenyl)methyl]-4-hydroxy-1-[(2R)-3-methyl-2-(3-methyl-1,2-oxazol-5-yl)butanoyl]pyrrolidine-2-carboxamide] |  |  |
| > 1 | < 35 | C=CC(=O)N1CCN(c2nc(O[C@H](C)CN3CC(COCC(=O)N[C@H](C(=O)N4C[C@H](O)C[C@H]4C(=O)N[C@@H](C)c4ccc(-c5scnc5C)cc4)C(C)(C)C)C3)nc3c(F)c(-c4cc(O)cc5ccccc45)c(Cl)cc23)CC1 [Compound 42, (2S,4R)-1-[(2S)-2-[2-({1-[(2R)-2-{[6-chloro-8-fluoro-7-(3-hydroxynaphthalen-1-yl)-4-[4-(prop-2-enoyl)piperazin-1-yl]quinazolin-2-yl]oxy}propyl]azetidin-3-yl}methoxy)acetamido]-3,3-dimethylbutanoyl]-4-hydroxy-N-[(1S)-1-[4-(4-methyl-1,3-thiazol-5-yl)phenyl]ethyl]pyrrolidine-2-carboxamide] |  |  |
| 0.1 to 1 | < 35 | C=CC(=O)N1CCN(c2nc(O[C@H](C)CN3CCC(OCCOCCOc4cc(-c5scnc5C)ccc4CNC(=O)[C@@H]4C[C@@H](O)CN4C(=O)[C@H](c4cc(C)no4)C(C)C)CC3)nc3c(F)c(-c4cc(O)cc5ccccc45)c(Cl)cc23)CC1 [Compound 71, (2S,4R)-N-[(2-{2-[2-({1-[(2R)-2-{[6-chloro-8-fluoro-7-(3-hydroxynaphthalen-1-yl)-4-[4-(prop-2-enoyl)piperazin-1-yl]quinazolin-2-yl]oxy}propyl]piperidin-4-yl}oxy)ethoxy]ethoxy}-4-(4-methyl-1,3-thiazol-5-yl)phenyl)methyl]-4-hydroxy-1-[(2S)-3-methyl-2-(3-methyl-1,2-oxazol-5-yl)butanoyl]pyrrolidine-2-carboxamide] |  |  |
| > 1 |  | C=CC(=O)N1CCN(c2nc(O[C@H](C)CN3CCC(COc4cc([C@H](C(=O)N5C[C@H](O)C[C@H]5C(=O)N[C@@H](C)c5ccc(-c6scnc6C)cc5)C(C)C)on4)CC3)nc3c(F)c(-c4cc(O)cc5ccccc45)c(Cl)cc23)CC1 [Compound 19, (2S,4R)-1-[(2R)-2-[3-({1-[(2R)-2-{[6-chloro-8-fluoro-7-(3-hydroxynaphthalen-1-yl)-4-[4-(prop-2-enoyl)piperazin-1-yl]quinazolin-2-yl]oxy}propyl]piperidin-4-yl}methoxy)-1,2-oxazol-5-yl]-3-methylbutanoyl]-4-hydroxy-N-[(1S)-1-[4-(4-methyl-1,3-thiazol-5-yl)phenyl]ethyl]pyrrolidine-2-carboxamide] |  |  |
| > 1 |  | C=C(F)C(=O)N1CCN(c2nc(O[C@H](C)CN3CCC(COc4cc([C@@H](C(=O)N5C[C@H](O)C[C@H]5C(=O)N[C@@H](C)c5ccc(-c6scnc6C)cc5)C(C)C)on4)CC3)nc3c(F)c(-c4cc(O)cc5ccccc45)c(Cl)cc23)CC1 [Compound 18, (2S,4R)-1-[(2S)-2-[3-({1-[(2R)-2-({6-chloro-8-fluoro-4-[4-(2-fluoroprop-2-enoyl)piperazin-1-yl]-7-(3-hydroxynaphthalen-1-yl)quinazolin-2-yl}oxy)propyl]piperidin-4-yl}methoxy)-1,2-oxazol-5-yl]-3-methylbutanoyl]-4-hydroxy-N-[(1S)-1-[4-(4-methyl-1,3-thiazol-5-yl)phenyl]ethyl]pyrrolidine-2-carboxamide] |  |  |

| SMILES | DC50 (HiBit-KRAS^G12C [1]; SW1573 HiBit-KRas^G12C) [µM] | Dmax (HiBit-KRAS^G12C [1]; [3]) [%] | Dmax (HiBit-KRAS^G12C [1]; SW1573, read-out: KRas^G12C-HiBit (SW1573; 0.1% DMSO) Dmax**, SW1573 HiBit-KRas^G12C) [%] | Dmax (HiBit-KRAS^G12C [2]) [%] |
| --- | --- | --- | --- | --- |
| C=CC(=O)N1CCN(c2nc(O[C@H](C)CN3CCC(C4CCN(CC(=O)N[C@H](C(=O)N5C[C@H](O)C[C@H]5C(=O)N[C@@H](C)c5ccc(-c6scnc6C)cc5)C(C)(C)C)CC4)CC3)nc3c(F)c(-c4cc(O)cc5ccccc45)c(Cl)cc23)CC1 [Compound 50, (2S,4R)-1-[(2S)-2-(2-{1′-[(2R)-2-{[6-chloro-8-fluoro-7-(3-hydroxynaphthalen-1-yl)-4-[4-(prop-2-enoyl)piperazin-1-yl]quinazolin-2-yl]oxy}propyl]-[4,4′-bipiperidin]-1-yl}acetamido)-3,3-dimethylbutanoyl]-4-hydroxy-N-[(1S)-1-[4-(4-methyl-1,3-thiazol-5-yl)phenyl]ethyl]pyrrolidine-2-carboxamide] | > 1 |  | 35 to 70 | 35 to 70 |
